# In ChEMBL document CHEMBL1148856, “Thiazolone-acylsulfonamides as novel HCV NS5B polymerase allosteric inhibitors: convergence of structure-based drug design and X-ray crystallographic study” (Bioorg Med Chem Lett, 2007):
# Assay: Inhibition of HCV BK NS5B polymerase
# Parameters: species or system Hepacivirus hominis
row,Structure (SMILES),IC50 [µM]
1,CCc1ccc(/C=C2\SC(N[C@H](CS(=O)(=O)NC(=O)c3ccccc3)c3ccccc3)=NC2=O)o1 (stereo in doubt),16
2,CCc1ccc(/C=C2\SC(N[C@H](C(=O)NS(=O)(=O)c3cccc(C(=O)O)c3)c3ccc(F)cc3)=NC2=O)o1 (stereo in doubt),12
3,CCc1ccc(/C=C2\SC(N[C@H](C(=O)NS(=O)(=O)c3cccc([N+](=O)[O-])c3)c3ccc(F)cc3)=NC2=O)o1 (stereo in doubt),15
4,CCc1ccc(/C=C2\SC(N[C@H](C(=O)NS(=O)(=O)c3cccc(C(=O)OC)c3)c3ccc(F)cc3)=NC2=O)o1 (stereo in doubt),14

# The next compounds have a lower IC50 than those just listed; values first:
row,IC50 [µM],Structure (SMILES)
1,9.3,CCc1ccc(/C=C2\SC(N[C@H](C(=O)NS(=O)(=O)c3ccc(C)cc3)c3ccc(F)cc3)=NC2=O)o1 (stereo in doubt)
2,6.6,CCc1ccc(/C=C2\SC(N[C@H](C(=O)NS(=O)(=O)c3ccc([N+](=O)[O-])cc3)c3ccc(Cl)cc3Cl)=NC2=O)o1 (stereo in doubt)
